Non-standard residues stand in square brackets, D forms with d. Residues, ends and D or L forms follow the SMILES beside them. NMeW = CN[C@@H](Cc1c[nH]c2ccccc12)C(=O)O; Arg(Me) = CNC(=N)NCCC[C@H](N)C(=O)O; Nva = CCC[C@H](N)C(=O)O; azaGly = NNC(=O)O
Assays:
[1] = Action of reducing testosterone level in blood in mature male rat (1 mM peptide in 50% DMSO, ALZET osmotic pump); assay type: in vivo; conditions: 1 mM peptide in 50% DMSO aqueous solution, ALZET osmotic pump s.c., six days
Method: The peptide was encapsulated in five ALZET osmotic pump (Model 2001, 0.2 ml of volume, releasing rate 0.001 ml/hr, DURECT Corporation). The ALZET pumps encapsulated with the peptide solution were implanted to dorsal subcutaneous of five male CD (SD) IGS rat at nine weeks age (Charles River Japan, Inc.) anesthesized with ether for one pump to one rat. Separately, for negative controls, the ALZET osmotic pumps encapsulated with distilled water were implanted to five male CD (SD) IGS rat (Charles River Japan, Inc.) The rats were bred for six days under the normal conditions. After weighing, blood was collected by decapitation. To 1 ml of blood, 0.03 ml of aprotinin (Trasylol, Byer) solution containing 0.1 g/ml EDTA 2Na was added. The plasma was isolated by centrifugation at 1,800×g for 25 minutes and collected. The thus obtained plasma, 0.05 ml was effected by radioimmunoassay. (DPC Total Testosterone Kit, Diagnostic Products Corporation) to measure testosterone level in blood of each rat. The value beneath measuring limit of radioimmunoassay (0.04 ng/ml as concentration of plasma) was treated as zero. The mean values for testosterone level of five rats, to which the peptide was given, was calculated and the relative value (percentage) for the mean values of testosterone level of five rats, to which distilled watrer was given, was estimated.

hOT7T175 [2] = biological target: T1, hOT7T175 (Homo sapiens, UniProt Q969F8, L364H); assay type: cell-based; conditions: hOT7T175/CHO, FLIPR, evaluation for 40 seconds after initiation of the reaction
T1 construct: expressed in transfected cells
Method: The intracellular Ca ion level-increasing activity was measured using FLIPR as in TEST EXAMPLE 2.

hOT7T175 [3] = biological target: T1, hOT7T175; test: Intracellular Ca ion level-increasing activity using FLIPR (180 seconds; specific activity to Metastin (1-54)); assay type: cell-based; conditions: hOT7T175/CHO, relative to Metastin (1-54) = 1

T1 sequence (Q969F8 whole entry L364H): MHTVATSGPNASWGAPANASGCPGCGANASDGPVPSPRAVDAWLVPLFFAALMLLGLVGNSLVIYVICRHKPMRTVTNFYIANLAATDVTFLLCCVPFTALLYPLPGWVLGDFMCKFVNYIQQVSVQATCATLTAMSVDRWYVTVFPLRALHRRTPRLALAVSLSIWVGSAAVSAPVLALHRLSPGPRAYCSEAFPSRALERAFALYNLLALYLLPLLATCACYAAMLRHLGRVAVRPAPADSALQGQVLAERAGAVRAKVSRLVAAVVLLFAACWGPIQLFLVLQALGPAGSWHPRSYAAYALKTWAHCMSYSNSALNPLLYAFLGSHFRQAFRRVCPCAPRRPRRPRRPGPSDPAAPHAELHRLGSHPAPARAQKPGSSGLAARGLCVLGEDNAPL

Compound	Testosterone level in Blood [1] [%]	Specific Act. (EC50/MS10 EC50) (hOT7T175 [2])	Specific Act. (intracellular Ca ion level-increasing activity, specific activity to Metastin (1-54)) (hOT7T175 [3])
3-Pyridinepropionyl-D-Trp-Asn-Thr-Phe-AzaGly-Leu-Arg(Me)-Trp-NH2 ({3‑Pyridinepropionyl}-[dW]NTF[azaGly]L[Arg(Me)]W-NH2) [Compound No. 670]	2	0.9	–
6-Aminocaproyl-D-Trp-Asn-Thr-Phe-AzaGly-Leu-Arg(Me)-Trp-NH2 ({6‑Aminocaproyl}-[dW]NTF[azaGly]L[Arg(Me)]W-NH2) [Compound No. 674]	2	2	–
CNC(=N)NCCC[C@H](NC(=O)[C@H](CC(C)C)NC(=O)NNC(=O)[C@H](Cc1ccccc1)NC(=O)[C@H](CO)NC(=O)[C@H](CC(N)=O)NC(=O)[C@H](Cc1c[nH]c2ccccc12)NC(=O)[C@H](CC(N)=O)NC(=O)[C@H](N)Cc1ccc(O)cc1)C(=O)N[C@@H](Cc1ccccc1)C(N)=O [Compound No. 232, D-Tyr-Asn-Trp-Asn-Ser-Phe-AzaGly-Leu-Arg(Me)-Phe-NH2]	–	3.9	3
CNC(=N)NCCC[C@H](NC(=O)[C@H](CC(C)C)NC(=O)NNC(=O)[C@H](Cc1ccccc1)NC(=O)[C@H](CO)NC(=O)[C@H](CC(N)=O)NC(=O)[C@@H](NC(=O)[C@H](N)Cc1ccc(O)cc1)[C@@H](C)O)C(=O)N[C@@H](Cc1ccccc1)C(N)=O [Compound No. 241, D-Tyr-Thr-Asn-Ser-Phe-AzaGly-Leu-Arg(Me)-Phe-NH2] (H-[dY]TNSF[azaGly]L[Arg(Me)]F-NH2)	–	5.3	1
CNC(=N)NCCC[C@H](NC(=O)[C@H](CC(C)C)NC(=O)NNC(=O)[C@H](Cc1ccccc1)NC(=O)[C@H](CO)NC(=O)[C@H](CC(N)=O)NC(=O)[C@@H](Cc1c[nH]c2ccccc12)NC(=O)[C@H](N)Cc1ccc(O)cc1)C(=O)N[C@@H](Cc1ccccc1)C(N)=O [Compound No. 242, D-Tyr-D-Trp-Asn-Ser-Phe-AzaGly-Leu-Arg(Me)-Phe-NH2] (H-[dY][dW]NSF[azaGly]L[Arg(Me)]F-NH2)	–	1.4	2
Ac-D-Trp-Asn-Thr-Phe-AzaGly-Leu-Arg(Me)-Trp-NH2 (Ac-[dW]NTF[azaGly]L[Arg(Me)]W-NH2; SMILES CNC(=N)NCCC[C@H](NC(=O)[C@H](CC(C)C)NC(=O)NNC(=O)[C@H](Cc1ccccc1)NC(=O)[C@@H](NC(=O)[C@H](CC(N)=O)NC(=O)[C@@H](Cc1c[nH]c2ccccc12)NC(C)=O)[C@@H](C)O)C(=O)N[C@@H](Cc1c[nH]c2ccccc12)C(N)=O) [Compound No. 666]	2	1.1	–
Ac-D-Trp-D-Trp-Asn-Thr-Phe-AzaGly-Leu-Arg(Me)-Trp-NH2 (Ac-[dW][dW]NTF[azaGly]L[Arg(Me)]W-NH2; SMILES CNC(=N)NCCC[C@H](NC(=O)[C@H](CC(C)C)NC(=O)NNC(=O)[C@H](Cc1ccccc1)NC(=O)[C@@H](NC(=O)[C@H](CC(N)=O)NC(=O)[C@@H](Cc1c[nH]c2ccccc12)NC(=O)[C@@H](Cc1c[nH]c2ccccc12)NC(C)=O)[C@@H](C)O)C(=O)N[C@@H](Cc1c[nH]c2ccccc12)C(N)=O) [Compound No. 663]	2	0.8	–
Ac-D-Tyr-D-Pya(2)-Asn-Thr-Phe-AzaGly-Leu-Arg(Me)-Trp-NH2 [Compound No. 658]	2	0.4	–
Ac-D-Tyr-D-Pya(3)-Asn-Thr-Phe-AzaGly-Leu-Arg(Me)-Trp-NH2 [Compound No. 660]	2	1.1	–
Ac-D-Tyr-D-Pya(4)-Asn-Thr-Phe(4F)-AzaGly-Leu-Arg(Me)-Trp-NH2 [Compound No. 638]	2	1.7	–
Ac-D-Tyr-D-Trp-Asn-Thr-Phe-AzaGly-Leu-Arg(Me2)sym-Trp-NH2 [Compound No. 608]	2	2.2	–
Ac-D-Tyr-D-Trp-Asn-Thr-Phe-AzaGly-Nva-Arg(Me)-Trp-NH2 (Ac-[dY][dW]NTF[azaGly][Nva][Arg(Me)]W-NH2; SMILES CCC[C@H](NC(=O)NNC(=O)[C@H](Cc1ccccc1)NC(=O)[C@@H](NC(=O)[C@H](CC(N)=O)NC(=O)[C@@H](Cc1c[nH]c2ccccc12)NC(=O)[C@@H](Cc1ccc(O)cc1)NC(C)=O)[C@@H](C)O)C(=O)N[C@@H](CCCNC(=N)NC)C(=O)N[C@@H](Cc1c[nH]c2ccccc12)C(N)=O) [Compound No. 677]	2	0.3	–
Ac-D-Tyr-D-Trp-Asn-Thr-Pya(4)-AzaGly-Leu-Arg(Me)-Trp-NH2 [Compound No. 635]	2	1.4	–
Ac-D-Tyr-D-Tyr-D-Trp-Asn-Thr-Phe-AzaGly-Leu-Arg(Me)-Trp-NH2 (Ac-[dY][dY][dW]NTF[azaGly]L[Arg(Me)]W-NH2; SMILES CNC(=N)NCCC[C@H](NC(=O)[C@H](CC(C)C)NC(=O)NNC(=O)[C@H](Cc1ccccc1)NC(=O)[C@@H](NC(=O)[C@H](CC(N)=O)NC(=O)[C@@H](Cc1c[nH]c2ccccc12)NC(=O)[C@@H](Cc1ccc(O)cc1)NC(=O)[C@@H](Cc1ccc(O)cc1)NC(C)=O)[C@@H](C)O)C(=O)N[C@@H](Cc1c[nH]c2ccccc12)C(N)=O) [Compound No. 651]	2	0.7	–
Ac-D-Tyr-NMeTrp-Asn-Thr-Phe-AzaGly-Leu-Arg(Me)-Trp-NH2 (Ac-[dY][NMeW]NTF[azaGly]L[Arg(Me)]W-NH2; SMILES CNC(=N)NCCC[C@H](NC(=O)[C@H](CC(C)C)NC(=O)NNC(=O)[C@H](Cc1ccccc1)NC(=O)[C@@H](NC(=O)[C@H](CC(N)=O)NC(=O)[C@H](Cc1c[nH]c2ccccc12)N(C)C(=O)[C@@H](Cc1ccc(O)cc1)NC(C)=O)[C@@H](C)O)C(=O)N[C@@H](Cc1c[nH]c2ccccc12)C(N)=O) [Compound No. 672]	2	2.1	–
Ac-D-Tyr-Pro-Asn-Thr-Phe-AzaGly-Leu-Arg(Me)-Trp-NH2 (Ac-[dY]PNTF[azaGly]L[Arg(Me)]W-NH2; SMILES CNC(=N)NCCC[C@H](NC(=O)[C@H](CC(C)C)NC(=O)NNC(=O)[C@H](Cc1ccccc1)NC(=O)[C@@H](NC(=O)[C@H](CC(N)=O)NC(=O)[C@@H]1CCCN1C(=O)[C@@H](Cc1ccc(O)cc1)NC(C)=O)[C@@H](C)O)C(=O)N[C@@H](Cc1c[nH]c2ccccc12)C(N)=O) [Compound No. 657]	2	1.1	–
Ac-G[dY][dW]NTF[azaGly]L[Arg(Me)]W-NH2 [Compound No. 649]	2	1	–
Ac-Tyr-D-Tyr-D-Trp-Asn-Thr-Phe-AzaGly-Leu-Arg(Me)-Trp-NH2 (Ac-Y[dY][dW]NTF[azaGly]L[Arg(Me)]W-NH2; SMILES CNC(=N)NCCC[C@H](NC(=O)[C@H](CC(C)C)NC(=O)NNC(=O)[C@H](Cc1ccccc1)NC(=O)[C@@H](NC(=O)[C@H](CC(N)=O)NC(=O)[C@@H](Cc1c[nH]c2ccccc12)NC(=O)[C@@H](Cc1ccc(O)cc1)NC(=O)[C@H](Cc1ccc(O)cc1)NC(C)=O)[C@@H](C)O)C(=O)N[C@@H](Cc1c[nH]c2ccccc12)C(N)=O) [Compound No. 676]	2	1.4	–
Ac-Tyr-Trp-Asn-Thr-Phe-AzaGly-Leu-Arg(Me)-Trp-NH2 (Ac-YWNTF[azaGly]L[Arg(Me)]W-NH2; SMILES CNC(=N)NCCC[C@H](NC(=O)[C@H](CC(C)C)NC(=O)NNC(=O)[C@H](Cc1ccccc1)NC(=O)[C@@H](NC(=O)[C@H](CC(N)=O)NC(=O)[C@H](Cc1c[nH]c2ccccc12)NC(=O)[C@H](Cc1ccc(O)cc1)NC(C)=O)[C@@H](C)O)C(=O)N[C@@H](Cc1c[nH]c2ccccc12)C(N)=O) [Compound No. 664]	6	0.6	–
Ac-Y[dW]NTF[azaGly]L[Arg(Me)]W-NH2 [Compound No. 615]	2	0.7	–
Ac-[dA][dW]NTF[azaGly]L[Arg(Me)]W-NH2 [Compound No. 616]	2	1.1	–
Ac-[dF][dW]NTF[azaGly]L[Arg(Me)]W-NH2 [Compound No. 618]	2	1.6	–
H-YNWNSFGLRY-NH2 [Compound No. 109]	–	2.6	20

Reference: patent US8778871B2 (Takeda Pharmaceutical Company Limited, priority 2004, dated 2014)
